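Protocol summary: plate cells (96-well), add compound at 5 concentrations, incubate 48 h, interpolate endpoints linearly. The concentration for 50% growth inhibition is given as GI50.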 Activity calls are given as the source filed them. Rule as the data show it: active = GI50 up to about 1.1 µM and inactive = higher.
Columns and labels:
Test in all cases: inhibition of tumour cell growth, NCI panel, 48 h
SNB-19 = test system: SNB-19
SN12C = test system: SN12C
HCC 2998 = test system: HCC 2998
KM-20L2 = test system: KM-20L2
EKVX = test system: EKVX
OVCAR-5 = test system: OVCAR-5
NCI-H522 = test system: NCI-H522
SF-268 = test system: SF-268
UACC-62 = test system: UACC-62
DLD-1 = test system: DLD-1
HL-60 = test system: HL-60
TK-10 = test system: TK-10
A498 = test system: A498
NCI-H226 = test system: NCI-H226
HCT-116 = test system: HCT-116
SNB-75 = test system: SNB-75
RXF 393 = test system: RXF 393
OVCAR-8 = test system: OVCAR-8
HOP-62 = test system: HOP-62
OVCAR-4 = test system: OVCAR-4
HT-29 = test system: HT-29
IGROV-1 = test system: IGROV-1
HOP-18 = test system: HOP-18
SW-620 = test system: SW-620
ACHN = test system: ACHN
A549 = test system: A549
U-251 = test system: U-251
CAKI-1 = test system: CAKI-1
RXF 631 = test system: RXF 631
NCI-H23 = test system: NCI-H23
M19-MEL = test system: M19-MEL
DMS-114 = test system: DMS-114
OVCAR-3 = test system: OVCAR-3
SR = test system: SR
SNB-78 = test system: SNB-78
SF-539 = test system: SF-539
SK-MEL-2 = test system: SK-MEL-2
UO-31 = test system: UO-31
MOLT-4 = test system: MOLT-4
Malme-3M = test system: Malme-3M
K562 = test system: K562
LOX IMVI = test system: LOX IMVI
UACC-257 = test system: UACC-257
SK-MEL-5 = test system: SK-MEL-5
SK-OV-3 = test system: SK-OV-3
HCT-15 = test system: HCT-15
M14 = test system: M14
NCI-H460 = test system: NCI-H460
LXFL 529 = test system: LXFL 529
SF-295 = test system: SF-295
DMS-273 = test system: DMS-273
CCRF-CEM = test system: CCRF-CEM
KM12 = test system: KM12
SK-MEL-28 = test system: SK-MEL-28
XF498 = test system: XF498
786-0 = test system: 786-0
COLO 205 = test system: COLO 205
RPMI-8226 = test system: RPMI-8226
HOP-92 = test system: HOP-92

With `COc1ccc(/C(Cl)=C(\C=O)c2ccc(Cl)cc2)cc1` the GI50 (SNB-19) was 7.01 µM (inactive), the GI50 (SN12C) was 3.08 µM (inactive) and the GI50 (HCC 2998) was 23.2 µM (inactive). The GI50 (KM-20L2) was 6.41 µM (inactive), the GI50 (EKVX) was 5.07 µM (inactive) and the GI50 (OVCAR-5) was 57.5 µM (inactive). For the same compound, the GI50 (NCI-H522) was 2.19 µM (inactive), the GI50 (SF-268) was 6.11 µM (inactive) and the GI50 (UACC-62) was 10.1 µM (inactive). For the same compound, the GI50 (DLD-1) was 4.85 µM (inactive), the GI50 (HL-60) was 3.46 µM (inactive) and the GI50 (TK-10) was 6.15 µM (inactive). The GI50 (A498) was 30.1 µM (inactive), the GI50 (NCI-H226) was 6.35 µM (inactive) and the GI50 (HCT-116) was 4.02 µM (inactive). The GI50 (SNB-75) was 4.27 µM (inactive), the GI50 (RXF 393) was 10.7 µM (inactive) and the GI50 (OVCAR-8) was 4.41 µM (inactive). The GI50 (HOP-62) was 19.4 µM (inactive), the GI50 (OVCAR-4) was 8.61 µM (inactive) and the GI50 (HT-29) was 4.84 µM (inactive). For the same compound, the GI50 (IGROV-1) was 7.71 µM (inactive), the GI50 (HOP-18) was 30.3 µM (inactive) and the GI50 (SW-620) was 4.12 µM (inactive). For the same compound, the GI50 (ACHN) was 3.27 µM (inactive), the GI50 (A549) was 5.61 µM (inactive) and the GI50 (U-251) was 3.79 µM (inactive). For the same compound, the GI50 (CAKI-1) was 9.51 µM (inactive), the GI50 (RXF 631) was 3.64 µM (inactive) and the GI50 (NCI-H23) was 3.56 µM (inactive). For the same compound, the GI50 (M19-MEL) was 9.77 µM (inactive), the GI50 (DMS-114) was 4.15 µM (inactive) and the GI50 (OVCAR-3) was 4.68 µM (inactive). For the same compound, the GI50 (SR) was 2.69 µM (inactive), the GI50 (SNB-78) was 6.85 µM (inactive) and the GI50 (SF-539) was 9.16 µM (inactive). For the same compound, the GI50 (SK-MEL-2) was 3.82 µM (inactive), the GI50 (UO-31) was 4.71 µM (inactive) and the GI50 (MOLT-4) was 2.63 µM (inactive). The GI50 (Malme-3M) was 23.3 µM (inactive), the GI50 (K562) was 3.81 µM (inactive) and the GI50 (LOX IMVI) was 3.45 µM (inactive). The GI50 (UACC-257) was 11 µM (inactive), the GI50 (SK-MEL-5) was 11.2 µM (inactive) and the GI50 (SK-OV-3) was 40.9 µM (inactive). The GI50 (HCT-15) was 3.41 µM, the GI50 (M14) was 14.1 µM (inactive) and the GI50 (NCI-H460) was 3.81 µM (inactive). For the same compound, the GI50 (LXFL 529) was 9.23 µM (inactive), the GI50 (SF-295) was 4.4 µM (inactive) and the GI50 (DMS-273) was 4.34 µM (inactive). The GI50 (CCRF-CEM) was 2.94 µM (inactive).
With `O=C1C(c2ccccc2)=[N+]([O-])c2ccc(Cl)cc21` the GI50 (SNB-19) was 34.5 µM (inactive), the GI50 (SN12C) was 24.2 µM (inactive) and the GI50 (KM-20L2) was 35.1 µM (inactive). For the same compound, the GI50 (EKVX) was 16.9 µM (inactive), the GI50 (OVCAR-5) was 35.2 µM (inactive) and the GI50 (NCI-H522) was 15.3 µM (inactive). The GI50 (SF-268) was 22.4 µM (inactive), the GI50 (UACC-62) was 17.5 µM (inactive) and the GI50 (DLD-1) was 19 µM (inactive). For the same compound, the GI50 (HL-60) was 10.6 µM (inactive), the GI50 (TK-10) was 29.2 µM (inactive) and the GI50 (A498) was > 100 µM (inactive). For the same compound, the GI50 (NCI-H226) was 14.7 µM (inactive), the GI50 (HCT-116) was 15.8 µM (inactive) and the GI50 (SNB-75) was 46.8 µM (inactive). The GI50 (KM12) was 30.1 µM (inactive), the GI50 (RXF 393) was 13.2 µM (inactive) and the GI50 (OVCAR-8) was 15 µM (inactive). The GI50 (SK-MEL-28) was 20 µM (inactive), the GI50 (HOP-62) was 63.4 µM (inactive) and the GI50 (HT-29) was 22 µM (inactive). For the same compound, the GI50 (IGROV-1) was 20.6 µM (inactive), the GI50 (HOP-18) was 29.6 µM (inactive) and the GI50 (SW-620) was 49.2 µM (inactive). The GI50 (ACHN) was 23.2 µM (inactive), the GI50 (A549) was 32.1 µM (inactive) and the GI50 (U-251) was 25.9 µM (inactive). For the same compound, the GI50 (XF498) was 19 µM (inactive), the GI50 (RXF 631) was 32.7 µM (inactive) and the GI50 (786-0) was 82.4 µM (inactive). The GI50 (NCI-H23) was 31.6 µM (inactive), the GI50 (M19-MEL) was 20.1 µM (inactive) and the GI50 (DMS-114) was 12.8 µM (inactive). For the same compound, the GI50 (OVCAR-3) was 23.3 µM (inactive), the GI50 (SR) was 34.7 µM (inactive) and the GI50 (SF-539) was 20.2 µM (inactive). The GI50 (SK-MEL-2) was > 100 µM (inactive), the GI50 (UO-31) was 43.3 µM (inactive) and the GI50 (MOLT-4) was 23.6 µM (inactive). For the same compound, the GI50 (COLO 205) was 14.1 µM (inactive), the GI50 (Malme-3M) was 26.2 µM (inactive) and the GI50 (K562) was 32.5 µM (inactive). For the same compound, the GI50 (LOX IMVI) was 18.4 µM (inactive), the GI50 (UACC-257) was 19.3 µM (inactive) and the GI50 (SK-MEL-5) was 17.3 µM (inactive). For the same compound, the GI50 (RPMI-8226) was 21.2 µM (inactive), the GI50 (SK-OV-3) was > 100 µM (inactive) and the GI50 (HCT-15) was 20 µM. The GI50 (M14) was 27.8 µM (inactive), the GI50 (NCI-H460) was 42.4 µM (inactive) and the GI50 (LXFL 529) was 13.6 µM (inactive). The GI50 (SF-295) was 34.1 µM (inactive), the GI50 (HOP-92) was 0.0256 µM (active) and the GI50 (CCRF-CEM) was 25.9 µM (inactive).
